# ChEMBL document CHEMBL1201862, “PubChem BioAssay data set” (2004)
#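 Method: 48-hour compound exposure of cells in 96-well plates, five concentrations, linear interpolation of endpoints. GI50: concentration for 50% inhibition of growth.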 Active and inactive are the calls of the source. Cut-off read from the data, not from the text of the source: active = GI50 up to about 1.1 µM and inactive = higher.
# Tests used:
# Experiment in all cases: DTP human tumour cell line panel, 48 h
# [1] = test system: A498
# [2] = test system: ACHN
# [3] = test system: CCRF-CEM
# [4] = test system: COLO 205
# [5] = test system: HCT-15
# [6] = test system: HT-29
# [7] = test system: Hs-578T
# [8] = test system: IGROV-1
# [9] = test system: K562
# [10] = test system: KM-20L2
# [11] = test system: KM12
# [12] = test system: LOX IMVI
# [13] = test system: M19-MEL
# [14] = test system: MCF7
# [15] = test system: NCI-H23
# [16] = test system: OVCAR-5
# [17] = test system: OVCAR-8
# [18] = test system: RPMI-8226
# [19] = test system: SK-MEL-28
# [20] = test system: SNB-19
# [21] = test system: SW-620
# [22] = test system: U-251
# [23] = test system: UACC-257
# [24] = test system: 786-0
# [25] = test system: A549
# [26] = test system: BT-549
# [27] = test system: CAKI-1
# [28] = test system: DU-145
# [29] = test system: EKVX
# [30] = test system: HCC 2998
# [31] = test system: HCT-116
# [32] = test system: HL-60
# [33] = test system: HOP-62
# [34] = test system: HOP-92
# [35] = test system: M14
# [36] = test system: MDA-MB-231
# [37] = test system: MDA-MB-435
# [38] = test system: MDA-N
# [39] = test system: MOLT-4
# [40] = test system: Malme-3M
# [41] = test system: NCI-H226
# [42] = test system: NCI-H460
# [43] = test system: NCI-H522
# [44] = test system: NCI/ADR-RES
# [45] = test system: OVCAR-3
# [46] = test system: OVCAR-4
# [47] = test system: PC-3
# [48] = test system: RXF 393
# [49] = test system: SF-268
# [50] = test system: SF-295
# [51] = test system: SF-539
# [52] = test system: SK-MEL-2
# [53] = test system: SK-MEL-5
# [54] = test system: SK-OV-3
# [55] = test system: SN12C
# [56] = test system: SNB-75
# [57] = test system: SR
# [58] = test system: T47D
# [59] = test system: TK-10
# [60] = test system: UACC-62
# [61] = test system: UO-31
# [62] = test system: DMS-114
# [63] = test system: DMS-273
# [64] = test system: LXFL 529
# [65] = test system: SNB-78
smiles,measurement,setting,value
CC1OC(O[C@@H]2C=C3CC[C@@H]4[C@H](CC[C@]5(C)[C@@H](c6ccc(=O)oc6)CC[C@]45O)[C@@]3(C)CC2)C(O)C(O)C1O (stereo not given in full),GI50,[1],0.03 µM (active)
same,GI50,[2],0.00179 µM (active)
same,GI50,[3],0.03 µM (active)
same,GI50,[4],0.03 µM (active)
same,GI50,[5],0.0475 µM
same,GI50,[6],0.03 µM (active)
same,GI50,[7],0.00119 µM (active)
same,GI50,[8],0.03 µM (active)
same,GI50,[9],0.03 µM (active)
same,GI50,[10],0.03 µM (active)
same,GI50,[11],0.03 µM (active)
same,GI50,[12],0.03 µM (active)
same,GI50,[13],0.03 µM (active)
same,GI50,[14],0.03 µM (active)
same,GI50,[15],0.0475 µM (active)
same,GI50,[16],0.03 µM (active)
same,GI50,[17],0.03 µM (active)
same,GI50,[18],0.03 µM (active)
same,GI50,[19],0.03 µM (active)
same,GI50,[20],0.03 µM (active)
same,GI50,[21],0.03 µM (active)
same,GI50,[22],0.03 µM (active)
same,GI50,[23],0.03 µM (active)
COc1nn(Cc2ccccn2)c2ccc([N+](=O)[O-])cc12,GI50,[24],> 100 µM (inactive)
same,GI50,[1],30.3 µM (inactive)
same,GI50,[25],> 100 µM (inactive)
same,GI50,[2],48.6 µM (inactive)
same,GI50,[26],44.4 µM (inactive)
same,GI50,[27],51.2 µM (inactive)
same,GI50,[3],76.2 µM (inactive)
same,GI50,[4],> 100 µM (inactive)
same,GI50,[28],> 100 µM (inactive)
same,GI50,[29],56.1 µM (inactive)
same,GI50,[30],84.7 µM (inactive)
same,GI50,[31],62.4 µM (inactive)
same,GI50,[5],62.7 µM
same,GI50,[32],20.2 µM (inactive)
same,GI50,[33],> 100 µM (inactive)
same,GI50,[34],20.7 µM (inactive)
same,GI50,[6],70.6 µM (inactive)
same,GI50,[7],19.4 µM (inactive)
same,GI50,[8],35.1 µM (inactive)
same,GI50,[9],31 µM (inactive)
same,GI50,[11],> 100 µM (inactive)
same,GI50,[12],53.6 µM (inactive)
same,GI50,[35],> 100 µM (inactive)
same,GI50,[14],> 100 µM (inactive)
same,GI50,[36],57.4 µM (inactive)
same,GI50,[37],32.7 µM (inactive)
same,GI50,[38],27.8 µM (inactive)
same,GI50,[39],53.1 µM (inactive)
same,GI50,[40],> 100 µM (inactive)
same,GI50,[41],85.9 µM (inactive)
same,GI50,[15],> 100 µM (inactive)
same,GI50,[42],> 100 µM (inactive)
same,GI50,[43],47.8 µM (inactive)
same,GI50,[44],64.4 µM (inactive)
same,GI50,[45],> 100 µM (inactive)
same,GI50,[46],> 100 µM (inactive)
same,GI50,[16],> 100 µM (inactive)
same,GI50,[17],> 100 µM (inactive)
same,GI50,[47],> 100 µM (inactive)
same,GI50,[18],54.8 µM (inactive)
same,GI50,[48],42.4 µM (inactive)
same,GI50,[49],> 100 µM (inactive)
same,GI50,[50],> 100 µM (inactive)
same,GI50,[51],27.4 µM (inactive)
same,GI50,[19],> 100 µM (inactive)
same,GI50,[52],51.1 µM (inactive)
same,GI50,[53],30.5 µM (inactive)
same,GI50,[54],> 100 µM (inactive)
same,GI50,[55],> 100 µM (inactive)
same,GI50,[20],> 100 µM (inactive)
same,GI50,[56],17.3 µM (inactive)
same,GI50,[57],28.4 µM (inactive)
same,GI50,[21],63 µM (inactive)
same,GI50,[58],77.8 µM (inactive)
same,GI50,[59],53.1 µM (inactive)
same,GI50,[22],> 100 µM (inactive)
same,GI50,[23],94 µM (inactive)
same,GI50,[60],38.3 µM (inactive)
same,GI50,[61],32.4 µM (inactive)
O=C1Nc2ccccc2/C1=N/NC(=S)N1CCCC1,GI50,[24],0.647 µM (active)
same,GI50,[1],2.95 µM (inactive)
same,GI50,[25],0.736 µM (active)
same,GI50,[2],0.64 µM (active)
same,GI50,[26],2.54 µM (inactive)
same,GI50,[27],2.15 µM (inactive)
same,GI50,[3],0.369 µM (active)
same,GI50,[4],1.44 µM (inactive)
same,GI50,[28],17.1 µM (inactive)
same,GI50,[29],2.37 µM (inactive)
same,GI50,[30],0.586 µM (active)
same,GI50,[31],0.425 µM (active)
same,GI50,[5],0.281 µM
same,GI50,[32],0.583 µM (active)
same,GI50,[33],1.19 µM (inactive)
same,GI50,[34],8.38 µM (inactive)
same,GI50,[6],1.19 µM (inactive)
same,GI50,[7],2.13 µM (inactive)
same,GI50,[8],1.87 µM (inactive)
same,GI50,[9],0.586 µM (active)
same,GI50,[11],2.4 µM (inactive)
same,GI50,[12],0.673 µM (active)
same,GI50,[35],1.56 µM (inactive)
same,GI50,[14],2.07 µM (inactive)
same,GI50,[36],6.58 µM (inactive)
same,GI50,[37],3.64 µM (inactive)
same,GI50,[38],3.4 µM (inactive)
same,GI50,[39],0.193 µM (active)
same,GI50,[40],0.889 µM (active)
same,GI50,[41],0.247 µM (active)
same,GI50,[15],3.01 µM (inactive)
same,GI50,[42],0.499 µM (active)
same,GI50,[43],2.12 µM (inactive)
same,GI50,[44],0.361 µM (active)
same,GI50,[45],0.53 µM (active)
same,GI50,[46],1.01 µM (active)
same,GI50,[16],12.8 µM (inactive)
same,GI50,[17],1.02 µM (active)
same,GI50,[47],0.507 µM (active)
same,GI50,[18],0.743 µM (active)
same,GI50,[48],0.358 µM (active)
same,GI50,[49],9.93 µM (inactive)
same,GI50,[50],0.662 µM (active)
same,GI50,[51],1.08 µM (active)
same,GI50,[19],> 100 µM (inactive)
same,GI50,[52],6.27 µM (inactive)
same,GI50,[53],0.585 µM (active)
same,GI50,[54],5.12 µM (inactive)
same,GI50,[55],1.91 µM (inactive)
same,GI50,[20],1.15 µM (inactive)
same,GI50,[56],3.45 µM (inactive)
same,GI50,[57],0.291 µM (active)
same,GI50,[21],0.766 µM (active)
same,GI50,[58],6.25 µM (inactive)
same,GI50,[59],8.26 µM (inactive)
same,GI50,[22],0.867 µM (active)
same,GI50,[23],6.97 µM (inactive)
same,GI50,[60],1.32 µM (inactive)
same,GI50,[61],0.632 µM (active)
S=c1nc2c(c[nH]1)C1c3ccccc3C2c2ccccc21,GI50,[24],> 100 µM (inactive)
same,GI50,[25],68.9 µM (inactive)
same,GI50,[2],61.2 µM (inactive)
same,GI50,[3],55 µM (inactive)
same,GI50,[4],88.7 µM (inactive)
same,GI50,[62],62.2 µM (inactive)
same,GI50,[63],> 100 µM (inactive)
same,GI50,[29],38.5 µM (inactive)
same,GI50,[31],> 100 µM (inactive)
same,GI50,[5],80.2 µM
same,GI50,[32],28.3 µM (inactive)
same,GI50,[33],> 100 µM (inactive)
same,GI50,[6],> 10 µM (inactive)
same,GI50,[8],69.2 µM (inactive)
same,GI50,[9],45.6 µM (inactive)
same,GI50,[10],> 100 µM (inactive)
same,GI50,[11],44.1 µM (inactive)
same,GI50,[12],> 100 µM (inactive)
same,GI50,[64],> 100 µM (inactive)
same,GI50,[35],79.8 µM (inactive)
same,GI50,[13],> 100 µM (inactive)
same,GI50,[39],31.8 µM (inactive)
same,GI50,[40],> 100 µM (inactive)
same,GI50,[41],> 100 µM (inactive)
same,GI50,[15],> 100 µM (inactive)
same,GI50,[42],> 100 µM (inactive)
same,GI50,[43],46 µM (inactive)
same,GI50,[45],67.5 µM (inactive)
same,GI50,[46],39.2 µM (inactive)
same,GI50,[16],> 100 µM (inactive)
same,GI50,[17],> 100 µM (inactive)
same,GI50,[18],35.9 µM (inactive)
same,GI50,[48],35.2 µM (inactive)
same,GI50,[49],> 100 µM (inactive)
same,GI50,[50],40.1 µM (inactive)
same,GI50,[51],> 100 µM (inactive)
same,GI50,[19],> 100 µM (inactive)
same,GI50,[52],57.7 µM (inactive)
same,GI50,[53],73.8 µM (inactive)
same,GI50,[55],> 100 µM (inactive)
same,GI50,[20],82.4 µM (inactive)
same,GI50,[56],15.9 µM (inactive)
same,GI50,[65],> 100 µM (inactive)
same,GI50,[57],34 µM (inactive)
same,GI50,[21],> 100 µM (inactive)
same,GI50,[59],> 100 µM (inactive)
same,GI50,[22],91.2 µM (inactive)
same,GI50,[60],59.6 µM (inactive)
same,GI50,[61],39.5 µM (inactive)
